# Data as given in patent US11278521B2, “GAS5 binding compounds, formulations, and uses thereof” (UNIVERSITY OF SOUTH FLORIDA, priority 2015, dated 2022).
# “Also recorded” adds a separate entry of the source.
# What was measured:
# GAS5 [1] = assay: screen of γ-AApeptide one-bead-one-compound combinatorial library with fluorescein tagged GAS5 oligonucleotide probe and validation; assay type: binding; conditions: positive beads from screen of 160,000 molecules, tRNA as control
# Excerpt: The interaction between UPF1 and GAS5 was disrupted using a γ-AApeptide based one-bead-one-compound (OBOC) combinatorial library (Wu H, Li Y, Bai G, Niu Y, Qiao Q, Tipton J D, Cao C, Cai J. gamma-AApeptide-based small-molecule ligands that inhibit Abeta aggregation. Chemical communications. 2014; 50(40):5206-8. doi: 10.1039/c3cc46685j. PubMed PMID: 24158240). The γ-AApeptide is a peptidomimetic with side chains for chemical diversity and are resistant to proteolytic cleavage. To screen the compound library, a probe that contained a fluorescein tagged oligonucleotide was synthesized. The probe spanned 30 nucleotides on either side of the UAA sequences on GAS5 (FIG. 2) The fluorescein was attached to the 5′end (beginning of oligonucleotide probe sequence). The nucleotide sequence within the GAS5 IncRNA that the oligonucleotide probe binds to can be about 100% identical to […] […]
# The length of oligonucleotide was required to maintain stem loop structure to specifically bind to GAS5. […] The compound having a structure according to Formula 3 was determined to have a chemical formula of C68H92N10O9S, a mass of about 1224.6769, and a molecular weight of 1225.6050. The compound having a structure according to Formula 14 was determined to have a chemical formula of C63H85N9O13S, a mass of about 1207.5988, and a molecular weight of 1208.4830.
# DM adipocytes = assay: cell viability assay after treatment with compound; assay type: cell-based; conditions: DM adipocytes treated with compound, cell viability assay (FIG. 3B)
# GAS5 [2] = assay: GAS5 levels in DM adipocytes by SYBR Green qPCR; assay type: cell-based; conditions: 20 nM, about 24 hours
# Protocol: Strategy for compound design: GAS5 transcript may be targeted to faster turnover by nonsense mediated RNA decay. GAS5 transcript has a premature termination codon which renders greater susceptibility for nonsense mediated RNA decay. […] GAS5 and UPF1 levels were measured in NDM and DM adipocytes.
# DM adipocytes were treated with G5-1397 (20 nM) for about 24 hours. GAS5 levels were measured using SYBR Green qPCR.
# GAS5 transcript = assay: RNA-EMSA (REMSA) with biotin-labeled in vitro transcribed GAS5; assay type: binding; conditions: 0.1 nM biotin-labeled GAS5, 10 nM compound, 10U yeast tRNA, 20 min at room temperature
# Protocol: RNA-EMSA was performed as previously described (see e.g. Apostolatos, H., Apostolatos, A., Vickers, T., Watson, J. E., Song, S., Vale, F., Cooper, D. R., Sanchez-Ramos, J., and Patel, N. A. (2010) Vitamin A metabolite, all-trans-retinoic acid, mediates alternative splicing of protein kinase C deltaVIII (PKCdeltaVIII) isoform via splicing factor SC35. J Biol Chem 285, 25987-25995 and Patel, R. S., Carter, G., Cooper, D. R., Apostolatos, H., and Patel, N. A. (2014) Transformer 2beta homolog (Drosophila) (TRA2B) regulates protein kinase C deltal (PKCdeltal) splice variant expression during 3T3L1 preadipocyte cell cycle. J Biol Chem 289, 31662-31672.
# Briefly, GAS5 was cloned in TOPO vector which has the T7 promoter. In vitro transcription assay was performed with biotin-label using RiboScribe kit using T7 RNA polymerase at 37° C. for 2 h in the presence of nucleotides, RNase inhibitor, and 5× transcription buffer. 0.1 nM of transcribed, biotin-labeled GAS5 was incubated with 10 nM G5-1397 in presence of 10U yeast tRNA and 10 units of RNase inhibitor in a final volume of 10 μl of RNA shift buffer for 20 min at room temperature and detected using Biotin Chromogenic Detection kit (ThermoFisher). […] Using the same assay, compounds according to Formulas 4-19 were also observed to bind GAS5 long non-coding RNA.
SMILES,ability to bind GAS5 (GAS5 [1]),cell toxicity (DM adipocytes),GAS5 levels (GAS5 [2]),binding to GAS5 transcript (GAS5 transcript)
C[C@H]1CN(C(=O)CC2CC2)CC(=O)N[C@@H](CCC(=O)O)CN(C(=O)CCC2CCCCC2)CC(=O)N[C@@H](Cc2ccccc2)CN(CC(N)=O)C(=O)CCSCc2ccc(cc2)C(=O)N[C@@H](Cc2ccccc2)CN(C(=O)CCC(=O)O)CC(=O)N1 [Formula 14],able to bind GAS5,–,–,–
CC(C)C[C@H]1CN(C(=O)CC2CC2)CC(=O)N[C@@H](CCCCN)CN(C(=O)CCc2ccccc2)CC(=O)N[C@@H](Cc2ccccc2)CN(CC(N)=O)C(=O)CCSCc2ccc(cc2)C(=O)N[C@@H](Cc2ccccc2)CN(C(=O)CC2CC2)CC(=O)N1 [Formula G5-1397],able to bind GAS5,without causing cell toxicity,substantially increases GAS5 levels,bound to GAS5 transcript; also recorded: GAS5 transcript binding
